Results from the supplement of paper PMC10307832.

Legend:
Assay in all cases: relative viability (nuclei count vs DMSO), 5 days (fraction); higher = more cells survive
RU-SKI 43 + Pictilisib = compound: CC[C@@H](C)CNCC(=O)N1CCC2=C([C@@H]1COC3=CC=CC(=C3)C)C=CS2 [RU-SKI 43] + CS(=O)(=O)N1CCN(Cc2cc3nc(-c4cccc5[nH]ncc45)nc(N4CCOCC4)c3s2)CC1 [Pictilisib] (partner 1 µM)
In short: (§1)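 Lung cancer cell lines were pin-tool dosed in 1536-well plates on the day after seeding, with either a lone drug or a fixed anchor-drug dose plus five library-drug doses (not always all listed) in √10 steps. Nuclei were counted on 4× images after 5 days. Relative viability is the ratio of treated-well to vehicle-well nuclei counts, with each value a median of duplicate plates.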

MK-8033 + Trametinib = compound: Cn1cc(-c2cnc3ccc4ccc(CS(=O)(=O)NCc5ccccn5)cc4c(=O)c3c2)cn1 [MK-8033] + CC(=O)Nc1cccc(-n2c(=O)n(C3CC3)c(=O)c3c(Nc4ccc(I)cc4F)n(C)c(=O)c(C)c32)c1 [Trametinib] (partner 0.02 µM)
In short: as §1

MK-8033 + Palbociclib = compound: Cn1cc(-c2cnc3ccc4ccc(CS(=O)(=O)NCc5ccccn5)cc4c(=O)c3c2)cn1 [MK-8033] + CC(=O)c1c(C)c2cnc(Nc3ccc(N4CCNCC4)cn3)nc2n(C2CCCC2)c1=O [Palbociclib] (partner 0.5 µM)
In short: as §1

MK-8033 + AZD7762 = compound: Cn1cc(-c2cnc3ccc4ccc(CS(=O)(=O)NCc5ccccn5)cc4c(=O)c3c2)cn1 [MK-8033] + NC(=O)Nc1cc(-c2cccc(F)c2)sc1C(=O)N[C@H]1CCCNC1 [AZD7762] (partner 0.2 µM)
In short: as §1

Row | Cell Line | relative viability (RU-SKI 43 + Pictilisib; first compound 0.1 µM) | relative viability (RU-SKI 43 + Pictilisib; first compound 0.3162 µM) | relative viability (RU-SKI 43 + Pictilisib; first compound 1 µM) | relative viability (RU-SKI 43 + Pictilisib; first compound 3.162 µM) | relative viability (RU-SKI 43 + Pictilisib; first compound 10 µM) | relative viability (MK-8033 + Trametinib; first compound 0.02 µM) | relative viability (MK-8033 + Trametinib; first compound 0.06325 µM) | relative viability (MK-8033 + Trametinib; first compound 0.2 µM) | relative viability (MK-8033 + Trametinib; first compound 0.6325 µM) | relative viability (MK-8033 + Trametinib; first compound 2 µM) | relative viability (MK-8033 + Palbociclib; first compound 0.02 µM) | relative viability (MK-8033 + Palbociclib; first compound 0.06325 µM) | relative viability (MK-8033 + Palbociclib; first compound 0.2 µM) | relative viability (MK-8033 + Palbociclib; first compound 0.6325 µM) | relative viability (MK-8033 + Palbociclib; first compound 2 µM) | relative viability (MK-8033 + AZD7762; first compound 0.02 µM) | relative viability (MK-8033 + AZD7762; first compound 0.06325 µM) | relative viability (MK-8033 + AZD7762; first compound 0.2 µM) | relative viability (MK-8033 + AZD7762; first compound 0.6325 µM) | relative viability (MK-8033 + AZD7762; first compound 2 µM)
1 | 201T | 0.71 | 0.544 | 0.737 | 0.662 | 0.67 | 0.778 | 0.76 | 0.709 | 0.782 | 0.73 | 0.329 | 0.37 | 0.356 | 0.369 | 0.367 | 0.7 | 0.481 | 0.607 | 0.683 | 0.618
2 | A-427 | 0.83 | 0.66 | 0.878 | – | 0.675 | 0.775 | 0.719 | 0.696 | 0.752 | 0.781 | 0.481 | 0.552 | 0.494 | 0.508 | 0.492 | 0.791 | 0.634 | 0.692 | 0.775 | 0.728
3 | BEN | 0.642 | 0.546 | 0.791 | 0.528 | 0.584 | 1.07 | 0.943 | 0.964 | 1.03 | 0.991 | 0.445 | 0.512 | 0.435 | 0.484 | 0.461 | 0.82 | 0.634 | 0.76 | 0.599 | 0.788
4 | CAL-12T | 0.772 | 0.334 | 0.624 | 0.397 | 0.461 | 0.347 | 0.297 | 0.31 | 0.413 | 0.329 | 0.44 | 0.436 | 0.324 | 0.579 | 0.323 | 0.594 | 0.66 | 0.59 | 0.573 | 0.567
5 | ChaGo-K-1 | 1.07 | 0.75 | 1.12 | 0.435 | 0.495 | 0.877 | 0.717 | 0.802 | 0.886 | 0.729 | 0.981 | 0.937 | 0.872 | 0.974 | 0.75 | 0.872 | 0.921 | 0.857 | 0.932 | 0.82
6 | EKVX | 0.395 | 0.422 | 0.392 | 0.482 | 0.386 | 0.334 | 0.297 | 0.295 | 0.367 | 0.344 | 0.366 | 0.322 | 0.362 | 0.39 | 0.373 | 0.695 | 0.615 | 0.693 | 0.647 | 0.63
7 | EMC-BAC-2 | 0.516 | 0.518 | 0.561 | 0.565 | 0.511 | 0.804 | 0.776 | 0.826 | 0.928 | 0.902 | 0.519 | 0.485 | 0.528 | 0.511 | 0.505 | 1.12 | 0.979 | 1 | 1.01 | 1.09
8 | EPLC-272H | 0.316 | 0.315 | 0.404 | – | 0.291 | 0.247 | 0.263 | 0.29 | 0.275 | 0.301 | 0.299 | 0.356 | 0.352 | 0.274 | 0.349 | 0.207 | 0.144 | 0.201 | 0.167 | 0.19
